Source: patent US6346406B1, “Elongation factor-2 kinase (EF-2 kinase), and methods of use therefor” (University of Medicine & Dentistry of New Jersey, priority 1997, dated 2002)

Legend:
[1] = tested on: recombinant human eEF-2 kinase; test: eEF-2 kinase activity assay: phosphorylation of rabbit reticulocyte eEF-2 with [γ-32P]ATP, SDS/PAGE and autoradiography; format: biochemical; conditions: kinase expressed in coupled transcription/translation system, assayed without further purification; 20 μM antagonist is printed in the FIG. 3 legend for panel C
Method: FIG. 3. Activity of recombinant eEF-2 kinase in vitro. A large scale (0.5 ml) reaction using a mixture of Cefk-1 and Cefk-2 plasmids was run as in FIG. 2, with the omission of labeled methionine. In the control experiment, the reaction was run with a plasmid containing a luciferase gene. (A) The reaction mixtures were separated by chromatography on a Mono Q column as described. (B) eEF-2 kinase activity in fractions was measured as the ability to phosphorylate purified rabbit eEF-2 in the presence of [γ-^32 P]ATP. Purified rabbit reticulocyte eEF-2 kinase was used in the (+) control experiments. (C) Ca^2+/calmodulin-dependency of recombinant C. elegans eEF-2 kinase. Mono Q fraction 25 was assayed in a standard eEF-2 kinase assay in the presence and absence of Ca^2+ and calmodulin and 20 μM trifluoperazine (TFP) or N-(6 aminohexyl)-5-chloro-1-napthalene-sulfonamide (W7). (D) Ca^2+/calmodulin-dependency of recombinant human eEF-2 kinase. […]
To assay for eEF-2 kinase activity, 5 μl from each fraction was added to a reaction mixture (40 μl) containing 50 mM Hepes-KOH (ph. 7.4) 10 mM magnesium acetate, 0.1 mM CaCl2, 5 mM dithiothreitol, 50 μM ATP, 2 μCi [γ-^32P]ATP, 0.6 μg calmodulin, and 0.5 μg rabbit reticulocyte eEF-2. […] Phosphoproteins were analyzed by autoradiography. […]

recombinant eEF-2 kinase = molecular target: T1, recombinant eEF-2 kinase (Homo sapiens, UniProt O00418); test: eEF-2 kinase activity assay using a 16-amino acid peptide derived from myosin heavy chain as the phosphorylation target; format: biochemical; conditions: [γ-33P]ATP, 30° C., phosphocellulose paper, scintillation counting
T1 construct: one of GST (pGEX-2T), 6xHis (pRSET A) or thioredoxin (pThioHisB); made in house; host or cells: Escherichia coli BL21(DE3)
Method: FIG. 8. Assay for eEF-2 kinase activity. Recombinant eEF-2 kinase (2 μg) was incubated with increasing concentrations of a peptide phosphorylation target (RKKGESEKTKTKEFL) in a buffer consisting of 12.5 mM Hepes-KOH (pH 7.4), 2.5 mM magnesium acetate, 1.25 mM DTT, 25 μM CaCl2, 0.5 μg calmodulin, 100 μM ATP, and 0.5 μCi [γ-^33P]ATP in a total volume of 50 μl. Samples were incubated at 30° C. and aliquots were withdrawn at various time points, and the reaction was terminated by incubation in an ice water bath. The aliquots were then spotted onto phosphocellulose paper (2 cm×2 cm) and washed (4×4 min) with 75 mM phosphoric acid. The papers were then rinsed with 100% ethanol, dried, and then counted in a scintillation counter.
Human eEF-2 kinase cDNA was cloned into three different expression vectors: pGEX-2T (Pharmacia Biotech, Piscataway, N.J.); pRSET A (Invitrogen, Sorrento Valley, Calif.); and, pThioHisB (Invitrogen). After transformation into Escherichia coli strain BL21(DE3), transformants were cultured in LB broth containing 50 μg/ml ampicillin. When the cultured reached an A600 value of 0.7, isopropyl-β-thiogalactopyranoside (IPTG) was added to the bacterial cultures to a final concentration of […] to induce expression. […] The refolded protein was analyzed by SDS-PAGE and assayed for the ability to phosphorylate eEF-2. […]

| inhibition of recombinant human eEF-2 kinase activity by calmodulin antagonists [1] | ability to serve as substrate (phosphoacceptor) for eEF-2 kinase (recombinant eEF-2 kinase) | Molecule |
| --- | --- | --- |
| completely inhibited |  | CN1CCN(CCCN2c3ccccc3Sc3ccc(C(F)(F)F)cc32)CC1 [trifluoperazine] |
| completely inhibited |  | NCCCCCCNS(=O)(=O)c1cccc2c(Cl)cccc12 [N-(6-aminohexyl)-5-chloro-1-napthalene-sulfonamide] |
|  | good substrate | RKKFGESEKTKTKEFL [16-mer peptide based on the phosphorylation site of Dictyostelium discoideum MHC, substrate for eEF-2 kinase] |
